Experimental data as given in patent US20060235068A1, “OPHTHALMOLOGICAL SURGERY COLORANT AND DELIVERY SYSTEM” (priority 2000, published 2006).

Key:
[1] = Contrast characteristics of indocyanine green colorant after exposure; format: physicochemical; conditions: exposed to air, room temperature and lighted atmospheric conditions; at least 8 hours up to one month after exposure, or longer
[2] = upon mixing; as marketed; cited from earlier work
[3] = system: ILM, the epiretinal membrane; assay: ILM / epiretinal membrane peeling with indocyanine green staining in human patients; format: in vivo; conditions: human patients having macular holes, epiretinal membranes, or both
Description: The procedures of Example are followed using human patients having macular holes, epiretinal membrances, or both.

Description for retinal ILM: Human cadaveric eyes are examined in the laboratory to determine if the ICG solution stains the retinal ILM. The entire anterior segment of the eye is excised to gain access to the vitreous cavity. […] The dye is left in place on the macula for 5 minutes. […] A bent 22 g needle is used to create the initial ILM tear. Intraocular foreign body forceps are then used to grasp the elevated ILM edge. The ILM is peeled in a continuous, circular manner similar to a capsulorhexis in cataract surgery. In each case, the ILM peel removes 3 to 4 disc diameters of ILM centered approximately on the fovea. Peeled ILM and cadaver eyes are fixed in 10% buffered formalin for histopathologic preparation. Specimens are evaluated by light microscopy.
The peeled ILM and sectioned globes are submitted for histopathologic evaluation and electron microscopy. Periodic acid-Schiff (PAS) stain is used to identify the ILM.

Q: With `CC1(C)C(/C=C/C=C/C=C/C=C2\N(CCCCS(=O)(=O)O)c3ccc4ccccc4c3C2(C)C)=[N+](CCCCS(=O)(=O)[O-])c2ccc3ccccc3c21` [indocyanine green] as the molecule, how does the “contrast characteristics after exposure” value [1] read?
A: satisfactory contrast characteristics

Q: And the “staining of the underlying retina” value (retinal ILM; after the ICG is removed, needle penetrated through the ILM)?
A: unstained underlying retina

Q: What about the “staining of the underlying ILM when posterior hyaloid remains attached” value (retinal ILM; compared with globes in which the posterior cortical vitreous was removed prior to ICG injection) of the same molecule?
A: less staining of the underlying ILM

Q: What about the “effect of staining on ILM peeling” value (retinal ILM; contrast between stained ILM and unstained retina) of the same molecule?
A: facilitates the continuation of ILM peeling

Q: What about the fluorescence stability [2] of the same molecule?
A: about 10 hours

Q: And the “peeling of the ILM, the epiretinal membrane or both” value [3]?
A: Successful peeling
